Measurements published in US4634704A, “Anti-allergic five membered heterocyclic ring containing N-(bicyclic heterocycyl)-4-piperidinamines” (Janssen Pharmaceutica, N.V., priority 1984, dated 1987).
Where a name gives a salt, the structure may show the parent alone. Read-outs that look alike come from different tables or passages of the source.

What was measured:
[1] = tested on: effects of serotonin in the gastric lesion test; settings: rats injected with compound 48/80; known serotonin-antagonists; cited from earlier work
[2] = tested on: compound 48/80-induced lethality; experiment: Protection of rats from compound 48/80-induced lethality; type: in vivo, rat (male, inbred Wistar strain); settings: subcutaneous or oral, 1 h before compound 48/80 0.5 mg/kg i.v., survival after 4 h; for ED50: Rattus norvegicus, 4 h, read-out: compound 48/80 lethality test in rats-ED50, dose protecting 50% of animals
Method: Protection of rats from compound 48/80-induced lethality.
The protection from compound 48/80-induced lethal circulatory collapse appears to be a simple way of evaluating quantitatively the antihistaminic activity of test compounds. Male rats of an inbred Wistar strain, weighing 240-260 g were used in the experiment. After overnight starvation the rats were transferred to conditioned laboratories (temp.=21±1° C., relative humidity=65±5%).
The rats were treated subcutaneously or orally with a test compound or with the solvent (NaCl solution, 0.9%). […] Survival after 4 hours is therefore considered to be a safe criterion of a protective effect of drug administration.
The ED50 -values of the compounds of formula (I) are listed in the first column of table 1. Said ED50 -values are the values in mg/kg body weight at which the tested compounds protect 50% of the tested animals against compound 48/80-induced lethality.

[3] = tested on: effects of serotonin in the gastric lesion test; experiment: Antagonistic activity on the effects of serotonin in the gastric lesion test (lesions induced by compound 48/80); type: in vivo, rat (male, Wistar inbred strain)
From the text: The compounds of formula (I) and the pharmaceutically acceptable acid addition salts thereof are also potent serotonin-antagonists. The potency of the subject compounds as serotonin-antagonists is clearly evidenced by the results obtained in the following tests wherein the antagonistic activity of the subject compounds on the effect of serotonin is examined.
Antagonistic activity on the effects of serotonin in the gastric lesion test.
The shock, followed by dead, can be avoided if the rats are pretreated with a classical H 1 antagonist.
Male rats of a Wistar inbred strain, weighing 220-250 g, were starved overnight, water being available ad libitum. The test compounds were administered orally as a solution or as a suspension in aqueous medium. A control rat and a "blank" rat received the test compound. One hour later 5-[4-(diphenylmethyl)-1-piperazinylmethyl]-1-methyl-1H-benzimidazole-2-methanol was administered subcutaneously to all rats at the dose of 2.5 mg/kg.
Four hours after the intravenous injection of compound 48/80, the rats were decapitated and the stomachs were removed. Subsequently the stomachs were inspected for distension and contents (blood, fluid, food) and thoroughly rinsed. The macroscopic lesions were scored from 0 to +++, 0 corresponding to the complete absence of visible lesions and the highest score corresponding to reddish rough patches covering more than half the glandular area.

[4] = Rattus norvegicus; read-out: gastric lesion test ED50
[5] = Rattus norvegicus, read-out: gastric lesion test ED50

Compound | ED50 [2] | ED50 [3, 4] | also measured
CN(C)CCCSc1ccccc1NC(=O)/C=C/c1ccccc1 [cinanserin] |  |  | prevention of cyanosis of ears and extremities, lesions in the glandular area of the stomach and abnormal gastric distension [1]: prevent completely
CN1CCC(=C2c3ccccc3C=Cc3ccccc32)CC1 [cyproheptadine] |  |  | prevention of cyanosis of ears and extremities, lesions in the glandular area of the stomach and abnormal gastric distension [1]: prevent completely
c1csc(Cn2c(NC3CCN(CCNc4nccs4)CC3)nc3ccccc32)c1 [Compound 28] | 0.08 mg/kg | 0.02 mg/kg | 
Fc1ccc(Cn2c(NC3CCN(CCNc4nc(-c5ccccn5)cs4)CC3)nc3ccccc32)cc1 [Compound 87] | 0.31 mg/kg | 0.63 mg/kg | 
Cc1ccc(Cn2c(NC3CCN(CCNc4nccs4)CC3)nc3ccccc32)cc1 [Compound 62] | 0.16 mg/kg | 0.63 mg/kg | 
Cc1nnc(NCCN2CCC(Nc3nc4ccccc4n3Cc3ccc(F)cc3)CC2)s1 [Compound 15, 1-[(4-fluorophenyl)methyl]-N-[1-[2-[(5-methyl-1,3,4-thiadiazol-2-yl)amino]ethyl]-4-piperidinyl]-1H-benzimidazol-2-amine] | 0.04 mg/kg | 0.31 mg/kg | 
Fc1ccc(Cn2c(NC3CCN(C4CCN(c5nccs5)CC4)CC3)nc3ccccc32)cc1 [Compound 52] | 1.25 mg/kg | 0.63 mg/kg | 
Fc1ccc(Cn2c(NC3CCN(CCNc4nccs4)CC3)nc3ccccc32)cc1 [Compound 58] |  |  | compound 48/80 lethality test in rats-ED50 ([2]; dose protecting 50% of animals, 0.5 mg/kg, 240 min): 0.02 mg/kg body weight; ED50 [3, 5]: 0.04 mg/kg
Clc1ccc(Cn2c(NC3CCN(CCNc4nccs4)CC3)nc3ccccc32)cc1 [Compound 25] | 0.31 mg/kg | 0.63 mg/kg | 
NC(=O)C1(N2CCCCC2)CCN(CCCC(=O)c2ccc(F)cc2)CC1 [pipamperone] |  |  | prevention of cyanosis of ears and extremities, lesions in the glandular area of the stomach and abnormal gastric distension [1]: prevent completely
Cc1coc(NCCN2CCC(Nc3nc4ccccc4n3Cc3ccc(F)cc3)CC2)n1 [Compound 84, 1-[(4-fluorophenyl)methyl]-N-[1-[2-[(4-methyl-2-oxazolyl)amino]ethyl]-4-piperidinyl]-1H-benzimidazol-2-amine] | 0.16 mg/kg | 0.63 mg/kg | 
CC[C@@H](CO)NC(=O)[C@@H]1C=C2c3cccc4c3c(cn4C)C[C@H]2N(C)C1 [methysergide] |  |  | prevention of cyanosis of ears and extremities, lesions in the glandular area of the stomach and abnormal gastric distension [1]: prevent completely
Cc1sc(N)nc1CCN1CCC(Nc2nc3ccccc3n2Cc2ccc(F)cc2)CC1 [Compound 94, N-[1-[2-(2-amino-5-methyl-4-thiazolyl)ethyl]-4-piperidinyl]-1-[(4-fluorophenyl)methyl]-1H-benzimidazol-2-amine] | 0.08 mg/kg |  | ED50 [3, 5]: 0.08 mg/kg
CC(=O)N(CCN1CCC(Nc2nc3ccccc3n2Cc2ccc(F)cc2)CC1)c1nccs1 [Compound 102, N-[2-[4-[[1-[(4-fluorophenyl)methyl]-1H-benzimidazol-2-yl]-amino]-1-piperidinyl]ethyl]-N-(2-thiazolyl)acetamide] | 0.16 mg/kg | 1.25 mg/kg | 
Cc1nc[nH]c1CN1CCC(Nc2nc3ccccc3n2Cc2ccc(F)cc2)CC1 [Compound 7, 1-(4-fluorophenylmethyl)-N-[1-[(4-methyl-1H-imidazol-5-yl)methyl]-4-piperidinyl]-1H-benzimidazol-2-amine] | 0.02 mg/kg | 0.31 mg/kg | 
CN1CCN2c3ccccc3Cc3ccccc3C2C1 (stereo not drawn) [mianserin] |  |  | prevention of cyanosis of ears and extremities, lesions in the glandular area of the stomach and abnormal gastric distension [1]: prevent completely

Compound | ED50 [2] | ED50 [3, 4] | also measured
Cc1ccccc1Cn1c(NC2CCN(CCNc3nccs3)CC2)nc2ccccc21 [Compound 29] | 0.63 mg/kg | 0.63 mg/kg | 
Fc1ccc(Cn2c(NC3CCN(CCNc4nc(-c5ccncc5)cs4)CC3)nc3ccccc32)cc1 [Compound 86] | 0.31 mg/kg | 1.25 mg/kg | 
CN1CCC(=C2c3ccccc3CCc3sccc32)CC1 [pizotifen] |  |  | prevention of cyanosis of ears and extremities, lesions in the glandular area of the stomach and abnormal gastric distension [1]: prevent completely
Cc1csc(NCCN2CCC(Nc3nc4ccccc4n3Cc3ccc(F)cc3)CC2)n1 [Compound 85, 1-[(4-fluorophenyl)methyl]-N-[1-[2-[(4-methyl-2-thiazolyl)amino]ethyl]-4-piperidinyl]-1H-benzimidazol-2-amine] | 0.08 mg/kg |  | ED50 [3, 5]: 0.04 mg/kg
Fc1ccc(Cn2c(NC3CCN(CCCCCNc4nccs4)CC3)nc3ccccc32)cc1 [Compound 21] | 0.16 mg/kg | 0.31 mg/kg | 
c1ccc2c(c1)nc(NC1CCN(CCNc3nccs3)CC1)n2Cc1cscn1 [Compound 49, N-[1-[2-(2-thiazolylamino)ethyl]-4-piperidinyl]-1-(4-thiazolylmethyl)-1H-benzimidazol-2-amine ethanedioate (2:5)] | 0.04 mg/kg | 0.63 mg/kg | 
CNc1nc(CCN2CCC(Nc3nc4ccccc4n3Cc3ccc(F)cc3)CC2)cs1 [Compound 98, 1-[(4-fluorophenyl)methyl]-N-[1-[2-[2-(methylamino)-4-thiazolyl]-ethyl]-4-piperidinyl]-1H-benzimidazol-2-amine] | 0.16 mg/kg | 0.16 mg/kg | 
Nc1nnc(NCCN2CCC(Nc3nc4ccccc4n3Cc3ccc(F)cc3)CC2)s1 [Compound 18] | 0.02 mg/kg |  | ED50 [3, 5]: 0.04 mg/kg
Fc1ccc(Cn2c(NC3CCN(CCNc4nccs4)CC3)nc3cccnc32)cc1 [Compound 17] | 0.02 mg/kg | 0.16 mg/kg | 
c1coc(Cn2c(NC3CCN(CCNc4nccs4)CC3)nc3ccccc32)c1 [Compound 48, 1-(2-furanylmethyl)-N-[1-[2-(2-thiazolylamino)ethyl]-4-piperidinyl]-1H-benzimidazol-2-amine] | 0.08 mg/kg | 0.63 mg/kg | 
N=C(N)Nc1nc(CCN2CCC(Nc3nc4ccccc4n3Cc3ccc(F)cc3)CC2)cs1 [Compound 90, N-[4-[2-[4-[[1-[(4-fluorophenyl)methyl]-1H-benzimidazol-2-yl]amino]-1-piperidinyl]ethyl-2-thiazolyl]guanidinetrihydrobromide] | 0.04 mg/kg | 0.31 mg/kg | 
Fc1ccc(Cn2c(NC3CCN(CCNc4ncc[nH]4)CC3)nc3ccccc32)cc1 [Compound 79, 1-[(4-fluorophenyl)methyl]-N-[1-[2-(1H-imidazol-2-ylamino)ethyl]-4-piperidinyl]-1H-benzimidazol-2-amine] | 0.02 mg/kg |  | ED50 [3, 5]: 0.04 mg/kg
CN1C[C@H](CNC(=O)OCc2ccccc2)C[C@@H]2c3cccc4c3c(cn4C)C[C@H]21 [metergoline] |  |  | prevention of cyanosis of ears and extremities, lesions in the glandular area of the stomach and abnormal gastric distension [1]: prevent completely
O=C(CCCN1CCC2(CC1)C(=O)NCN2c1ccccc1)c1ccc(F)cc1 [spiperone] |  |  | prevention of cyanosis of ears and extremities, lesions in the glandular area of the stomach and abnormal gastric distension [1]: prevent completely
Fc1ccc(Cn2c(NC3CCN(CCOc4nccs4)CC3)nc3ccccc32)cc1 [Compound 72, 1-[(4-fluorophenyl)methyl]-N-[1-[2-(2-thiazolyloxy)ethyl]-4-piperidinyl]-1H-benzimidazol-2-amine] | 0.08 mg/kg | 0.63 mg/kg | 
